Key:
[1] = tested on: Balb/c 3T3 (mouse fibroblasts); test: MTT assay; type: cell-based; details: BALB/c3T3, Balb/c 3T3, MTT, 72 h, M ± SD, n = 3
Description: (§1) DLD-1, HaCaT, and Balb/c 3T3 cells were maintained in DMEM, while HT-29 cells were grown in McCoy’s 5A medium with 10% FBS and 1% penicillin/streptomycin. All cell lines were incubated at 37 °C in a humidified atmosphere with 5% CO2. After detaching the cells with trypsin, they were quantified using a Scepter 3.0 automated cell counter (Millipore, Burlington, MA, USA).
(§2) The metabolic activity of cells exposed to the tested derivatives, doxorubicin, and DMSO, was assessed using an MTT assay according to the manufacturer’s protocol (Sigma-Aldrich, St. Louis, MO, USA). Adherent cells were seeded into 96-well plates (5000–10,000 cells in 100 µL of growth medium per well) and allowed to adhere overnight before treatment. For lymphocytes, activation with phytohemagglutinin-L (1 µg/mL) was performed for 24 h, after which they were seeded in 96-well plates at a density of 100,000 cells/well in RPMI-1640 medium supplemented with 20% FBS. The test substances, including Les-6547, Les-6557, and doxorubicin, were added to 100 µL of culture medium to achieve final concentrations of 0 µM, 0.1 µM, 1 µM, 2.5 µM, 10 µM, and 100 µM for all compounds, and the cells were further incubated for 24, 48, or 72 h. DMSO-treated cells served as the control. Then, 20 µL of MTT solution (5 mg/mL) was added and incubated for 2–4 h to allow formazan crystal formation. The formazan crystals were then solubilized by adding DMSO. The absorbance of formazan was measured at 570 nm using a ThermoScientific Evolution 201 UV-VIS spectrophotometer (ThermoFisher Scientific, Waltham, MA, USA). The control condition with 0.5% DMSO was considered 100% viability. The IC50 values for the compounds were determined using GraphPad Prism 8 and 9 software (GraphPad Software, Boston, MA, USA).

[2] = tested on: HT-29 colorectal adenocarcinoma cells; test: MTT assay; type: cell-based; details: Homo sapiens, HT-29, MTT, M ± SD, n = 3, read-out: IC50
Description: as §1, §2

[3] = tested on: HaCaT (human keratinocytes); test: MTT assay; type: cell-based; details: 72 h, M ± SD, n = 3
Description: as §1, §2

[4] = tested on: DLD-1 colorectal adenocarcinoma cells; test: MTT assay; type: cell-based, human; details: Homo sapiens, DLD-1, MTT, M ± SD, n = 3, read-out: IC50
Description: as §1, §2

Human blood lymphocytes = test: MTT assay; type: cell-based; details: Lymphocyte, human blood lymphocytes, 72 h, M ± SD, n = 3
Description: Lymphocytes from human peripheral blood were isolated with sodium heparin (10 U/mL) as an anticoagulant. Isolation was performed through a density gradient method with the Gradisol G, following a modified procedure. Peripheral blood was mixed with Gradisol G in equal proportions (1:1) and centrifuged at 400× g for 30 min at room temperature. The cells were collected, washed in phosphate-buffered saline (PBS), and treated with a hypotonic solution to remove residual erythrocytes. Lymphocytes were activated by phytohemagglutinin-L (1 µg/mL) and cultured in RPMI-1640 medium supplemented with 20% fetal bovine serum under controlled conditions of 95% air and 5% CO2 [27].
as §2

[5] = tested on: DLD-1 colorectal adenocarcinoma cells; test: Colony forming (clonogenic) assay; type: cell-based, human
Description: (§3) For colony forming assay, HT-29 and DLD-1 cells were seeded in 12-well plates at a density of 500 cells in 2 mL of growth medium per well. After overnight incubation, the cells were exposed to the compounds Les-6547, Les-6557, and doxorubicin at concentrations ranging from 0.1 to 100 µM for 72 h. Following treatment, the medium was replaced with fresh medium without the compounds. After 14 days of culture, cells were rinsed with PBS and fixed with cold methanol for 10 min. Subsequently, the cells were stained with a 0.1% crystal violet solution for 10 min. After washing, the plates were allowed to dry at room temperature. Numbers of colonies were quantified using ImageJ software (version 1.5.4; National Institutes of Health, Bethesda, MD, USA). The effect of the compounds on the colony-forming capacity was calculated as a percentage of colonies relative to the untreated control group.

[6] = tested on: HT-29 colorectal adenocarcinoma cells; test: Colony forming (clonogenic) assay; type: cell-based, human; details: Homo sapiens
Description: as §3

[7] = tested on: DLD-1 colorectal adenocarcinoma cells; test: [^3H]-thymidine incorporation assay (DNA biosynthesis); type: cell-based; details: Homo sapiens; DLD-1, 24 h, M ± SD, n = 3
Description: (§4) The anti-proliferative potential of Les-6547 and Les-6557 was analyzed using a clonogenic assay and incorporation of radioactive [^3H]-thymidine into the DNA of colorectal adenocarcinoma HT-29 and DLD-1 cell lines after 24 h of incubation with various concentrations of the tested agents.
(§5) Next, we examined the effects of the tested compounds on the proliferative activity of human colorectal adenocarcinoma cells by assessing their ability to influence DNA biosynthesis using the thymidine incorporation assay (Figure 6, Table 8). Les-6547 decreased DNA biosynthesis in DLD-1 cells to 50% at a concentration of 2.19 ± 0.39 µM.

[8] = tested on: HT-29 colorectal adenocarcinoma cells; test: as above; type: cell-based; details: Homo sapiens; HT-29, 24 h, M ± SD, n = 3
Description: as §4, §5

With `COc1cccc2c1C(=O)c1c(O)c3c(c(O)c1C2=O)C[C@@](O)(C(=O)CO)C[C@@H]3O[C@H]1C[C@H](N)[C@H](O)[C@H](C)O1` [Doxorubicin, doxorubicin, reference compound] the IC50 [1] was 560 ± 110 nM, the IC50 ([2]; 24 h) was 17000 ± 880 nM and the IC50 ([2]; 48 h) was 1550 ± 140 nM. For the same compound, the IC50 ([2]; 72 h) was 2110 ± 60 nM, the IC50 [3] was 900 ± 100 nM and the IC50 ([4]; 24 h) was 65300 ± 6080 nM. The IC50 ([4]; 48 h) was 2010 ± 90 nM, the IC50 ([4]; 72 h) was 760 ± 100 nM and the IC50 (Human blood lymphocytes) was 710 ± 110 nM. For the same compound, the colony growth ([5]; DLD-1, 10 µM) was 3.86%, the IC50 ([5]; Homo sapiens, DLD-1, 72 h treatment, 14 days of incubation, M ± SD, n = 3) was 3230 ± 50 nM and the inhibition at 1 µM ([6]; HT-29, 1 µM, read-out: inhibition of colony formation) was 100%. The IC50 ([6]; HT-29, 72 h treatment, 14 days of incubation, n = 3) was about 500 nM, the IC50 [7] was 6390 ± 20 nM and the IC50 [8] was 4720 ± 800 nM.

Source: publication PMC11941218, “Juglone-Bearing Thiopyrano[2,3-d]thiazoles Induce Apoptosis in Colorectal Adenocarcinoma Cells” (Cells, 2025)
